From the NIST ThermoML archive (doi:10.1021/je700672f)

Assay: xn = mol fraction of the nth substance listed
Settings: 101 kPa, Liquid

OCCOCCO [diethylene glycol] + O
Settings	mass density [kg/m3]	viscosity [mPa·s]
283.15 K, x1 = 0.0255	1019.73	–
283.15 K, x1 = 0.0565	1040.15	–
283.15 K, x1 = 0.1027	1063.34	–
283.15 K, x1 = 0.1966	1091.18	–
283.15 K, x1 = 0.301	1106.34	–
283.15 K, x1 = 0.3989	1113.62	–
283.15 K, x1 = 0.5006	1117.88	–
283.15 K, x1 = 0.6011	1120.39	–
283.15 K, x1 = 0.7003	1121.98	–
283.15 K, x1 = 0.8051	1123.07	–
283.15 K, x1 = 0.892	1123.64	–
283.15 K, x1 = 1	1124.24	–
288.15 K, x1 = 0.0255	1018.61	–
288.15 K, x1 = 0.0565	1038.42	–
288.15 K, x1 = 0.1027	1060.91	–
288.15 K, x1 = 0.1966	1088.01	–
288.15 K, x1 = 0.301	1102.88	–
288.15 K, x1 = 0.3989	1110.06	–
288.15 K, x1 = 0.5006	1114.29	–
288.15 K, x1 = 0.6011	1116.8	–
288.15 K, x1 = 0.7003	1118.39	–
288.15 K, x1 = 0.8051	1119.47	–
288.15 K, x1 = 0.892	1120.05	–
288.15 K, x1 = 1	1120.65	–
293.15 K, x1 = 0.0255	1017.27	1.429
293.15 K, x1 = 0.0565	1036.53	2.223
293.15 K, x1 = 0.1027	1058.39	3.639
293.15 K, x1 = 0.1966	1084.81	7.452
293.15 K, x1 = 0.301	1099.4	12.6
293.15 K, x1 = 0.3989	1106.48	17.48
293.15 K, x1 = 0.5006	1110.68	22.22
293.15 K, x1 = 0.6011	1113.19	26
293.15 K, x1 = 0.7003	1114.79	29.46
293.15 K, x1 = 0.8051	1115.87	32.26
293.15 K, x1 = 0.892	1116.45	34.04
293.15 K, x1 = 1	1117.05	36.43
298.15 K, x1 = 0.0255	1015.72	–
298.15 K, x1 = 0.0565	1034.5	–
298.15 K, x1 = 0.1027	1055.77	–
298.15 K, x1 = 0.1966	1081.56	–
298.15 K, x1 = 0.301	1095.89	–
298.15 K, x1 = 0.3989	1102.89	–
298.15 K, x1 = 0.5006	1107.07	–
298.15 K, x1 = 0.6011	1109.59	–
298.15 K, x1 = 0.7003	1111.19	–
298.15 K, x1 = 0.8051	1112.27	–
298.15 K, x1 = 0.892	1112.86	–
298.15 K, x1 = 1	1113.47	–
303.15 K, x1 = 0.0255	1013.97	1.115
303.15 K, x1 = 0.0565	1032.33	1.674
303.15 K, x1 = 0.1027	1053.07	2.629
303.15 K, x1 = 0.1966	1078.28	5.148
303.15 K, x1 = 0.301	1092.36	8.358
303.15 K, x1 = 0.3989	1099.29	11.4
303.15 K, x1 = 0.5006	1103.45	14.15
303.15 K, x1 = 0.6011	1105.97	16.34
303.15 K, x1 = 0.7003	1107.58	18.48
303.15 K, x1 = 0.8051	1108.67	20
303.15 K, x1 = 0.892	1109.27	21.19
303.15 K, x1 = 1	1109.88	22.09
308.15 K, x1 = 0.0255	1011.83	–
308.15 K, x1 = 0.0565	1030.02	–
308.15 K, x1 = 0.1027	1050.27	–
308.15 K, x1 = 0.1966	1074.94	–
308.15 K, x1 = 0.301	1088.8	–
308.15 K, x1 = 0.3989	1095.67	–
308.15 K, x1 = 0.5006	1099.82	–
308.15 K, x1 = 0.6011	1102.36	–
308.15 K, x1 = 0.7003	1103.97	–
308.15 K, x1 = 0.8051	1105.06	–
308.15 K, x1 = 0.892	1105.68	–
308.15 K, x1 = 1	1106.29	–
313.15 K, x1 = 0.0255	1009.99	0.959
313.15 K, x1 = 0.0565	1027.57	1.298
313.15 K, x1 = 0.1027	1047.39	1.984
313.15 K, x1 = 0.1966	1071.56	3.716
313.15 K, x1 = 0.301	1085.22	5.847
313.15 K, x1 = 0.3989	1092.03	7.761
313.15 K, x1 = 0.5006	1096.18	9.506
313.15 K, x1 = 0.6011	1098.73	10.93
313.15 K, x1 = 0.7003	1100.35	12.22
313.15 K, x1 = 0.8051	1101.45	13.2
313.15 K, x1 = 0.892	1102.09	13.93
313.15 K, x1 = 1	1102.7	14.56
318.15 K, x1 = 0.0255	1007.73	–
318.15 K, x1 = 0.0565	1025.01	–
318.15 K, x1 = 0.1027	1044.41	–
318.15 K, x1 = 0.1966	1068.13	–
318.15 K, x1 = 0.301	1081.61	–
318.15 K, x1 = 0.3989	1088.37	–
318.15 K, x1 = 0.5006	1092.53	–
318.15 K, x1 = 0.6011	1095.08	–
318.15 K, x1 = 0.7003	1096.71	–
318.15 K, x1 = 0.8051	1097.83	–
318.15 K, x1 = 0.892	1098.49	–
318.15 K, x1 = 1	1099.11	–
